Reference: publication PMC9221509, “Discovery of a Novel Antimicrobial Peptide, Temporin-PKE, from the Skin Secretion of Pelophylax kl. esculentus, and Evaluation of Its Structure-Activity Relationships” (Biomolecules, 2022)
Read-outs that look alike come from different tables or passages of the source. Non-standard residues stand in square brackets, D forms with d. Residues, ends and D or L forms follow the SMILES beside them. No end group written: not given here.

What was measured:
[1] = tested on: P. aeruginosa (ATCC CRM 9027); assay: microbe, parasite or virus in culture; assay type: cell-based, Pseudomonas aeruginosa; conditions: for MBC: ATCC CRM 9027, 18 h; for MIC: ATCC CRM 9027, 24 h
Method: (§1) The antimicrobial activities of peptides were evaluated against the Gram-positive bacteria, S. aureus (ATCC 6538), methicillin-resistant Staphylococcus aureus (MRSA) (NCTC 12493), Enterococcus faecalis (E. faecalis) (NCTC 12697); the Gram-negative bacteria, E. coli (ATCC CRM 8739), Klebsiella pneumoniae (K. pneumoniae) (ATCC 43816), Pseudomonas aeruginosa (P. aeruginosa) (ATCC CRM 9027); and the yeast, Candida albicans (C. albicans) (ATCC CRM 10231). Clinical isolates of MRSA (B042 V2E1 A), E. coli (ATCC BAA-2340), K. pneumoniae (ATCC BAA-1705), and P. aeruginosa (B004 V2S2 B) were also used to determine their antimicrobial activities. The suspension of microorganisms in the logarithmic growth phase with a specific final density (Gram-negative and Gram-positive bacteria: 5 × 10^5 CFU/mL; yeast: 1 × 10^6 CFU/mL) was incubated with different peptide concentrations from 1 µM to 512 µM at 37 °C for 24 h. PBS was used as the negative control, and norfloxacin and amphotericin B were selected as the positive control for bacteria and yeast, respectively. Since the Norfloxacin had weak activities against P. aeruginosa (B004 V2S2 B) and K. pneumoniae (ATCC BAA 1705), gentamicin was used as the positive control for these two bacterial strains. The absorbance of each well was obtained using a microplate reader (EL808, Biolise BioTek, Winooski, VT, USA) set at 550 nm wavelength. The MIC value was the lowest concentration of a peptide that inhibits visible bacterial growth. Once the MIC values were determined, an aliquot from the bacterial culture exposed to the peptide at or above its MIC value was inoculated on a Mueller Hinton agar (MHA) and was incubated at 37 for 18 h. The MBC value was the lowest concentration of a peptide that kills 99.9% of bacteria.

[2] = tested on: P. aeruginosa (B004 V2S2 B); assay: microbe, parasite or virus in culture; assay type: cell-based, Pseudomonas aeruginosa; conditions: B004 V2S2 B; for MBC: 18 h; for MIC: 24 h
Method: as §1

[3] = tested on: wax moth larvae; assay: Toxicity in wax moth larvae (uninfected); assay type: in vivo, Galleria mellonella; conditions: n = 9 in each group
Method: The antimicrobial activities of temporin-PKE and temporin-PKE-3K, in vivo, were studied in the wax moth larvae model. Wax moth larvae (Livefood UK Ltd., Rooks Bridge, UK), weighing 250 ± 25 mg, were divided into different groups (n = 9 in each group). […] After 2 h of exposure, 10 µL of peptide solution, with concentrations of 4, 8, and 16 mg/kg, was injected into the larvae in each group. PBS was utilised as the negative control, and 50 mg/kg vancomycin was selected as the positive control for MRSA. The survival rates of the larvae were recorded every 12 h for 120 h.

FLPKIIGKLSSKLPKIF-NH2 [Temporin-PKE-4K]
MBC [1]: 64 µM
MIC [1]: 64 µM
MBC [2]: 32 µM
MIC [2]: 32 µM

FLPLIIGALSSLLPKIF-NH2 [Temporin-PKE]
mortality of larvae treated with peptide ([3]; highest test concentration, late stage): 50%
MBC ([1]; read-out: MBC): >512 µM
MIC ([1]; read-out: MIC): >512 µM
MBC ([2]; read-out: MBC): >512 µM
MIC ([2]; read-out: MIC): >512 µM

CC[C@@H](C)[C@@H](NC(=O)[C@H](CCCCN)NC(=O)[C@@H]1CCCN1C(=O)[C@H](CC(C)C)NC(=O)[C@H](CC(C)C)NC(=O)[C@H](CO)NC(=O)[C@H](CO)NC(=O)[C@H](CC(C)C)NC(=O)[C@H](C)NC(=O)CNC(=O)[C@H](NC(=O)[C@H](NC(=O)[C@H](CC(C)C)NC(=O)[C@@H]1CCCN1C(=O)[C@H](CC(C)C)NC(=O)[C@@H](N)Cc1ccccc1)[C@H](C)CC)[C@H](C)CC)C(=O)N[C@@H](Cc1ccccc1)C(N)=O [Temporin-PKE-3i] (H-FLPL[dI][dI]GALSSLLPK[dI]F-NH2)
MBC ([1]; read-out: MBC): >512 µM
MIC ([1]; read-out: MIC): >512 µM
MBC ([2]; read-out: MBC): >512 µM
MIC ([2]; read-out: MIC): >512 µM

FLPLIIGKLSSLLPKIF-NH2 [Temporin-PKE-2K]
MBC ([1]; read-out: MBC): 256 µM
MIC ([1]; read-out: MIC): 128 µM
MBC [2]: 32 µM
MIC [2]: 32 µM

CC[C@@H](C)[C@@H](NC(=O)[C@H](CCCCN)NC(=O)[C@@H]1CCCN1C(=O)[C@H](CC(C)C)NC(=O)[C@H](CC(C)C)NC(=O)[C@H](CO)NC(=O)[C@H](CO)NC(=O)[C@H](CC(C)C)NC(=O)[C@H](C)NC(=O)CNC(=O)[C@@H](NC(=O)[C@@H](NC(=O)[C@H](CC(C)C)NC(=O)[C@@H]1CCCN1C(=O)[C@H](CC(C)C)NC(=O)[C@@H](N)Cc1ccccc1)[C@@H](C)CC)[C@@H](C)CC)C(=O)N[C@@H](Cc1ccccc1)C(N)=O [Temporin-PKE-i] (H-FLPLIIGALSSLLPK[dI]F-NH2)
MBC ([1]; read-out: MBC): >512 µM
MIC ([1]; read-out: MIC): >512 µM
MBC ([2]; read-out: MBC): >512 µM
MIC ([2]; read-out: MIC): >512 µM

FLPKIIGKLSSLLPKIF-NH2 [Temporin-PKE-3K]
survival of larvae injected with peptide ([3]; doses of 16 mg/kg): totally survived
MBC [1]: 16 µM
MIC [1]: 16 µM
MBC [2]: 8 µM
MIC [2]: 8 µM

FLPLIIGALSSKLPKIF-NH2 [Temporin-PKE-K12]
MBC [1]: 256 µM
MIC [1]: 256 µM
MBC [2]: 64 µM
MIC [2]: 64 µM
